Source: patent US12280063B2, “Anti-retroviral therapies and reverse transcriptase inhibitors for treatment of Alzheimer's disease” (Sanford Burnham Prebys Medical Discovery Institute, priority 2018, dated 2025)

Assays:
[1] = system: APP gencDNAs in CHO cells; assay: Induction of APP gencDNAs in APP 751-transfected CHO cells treated with hydrogen peroxide, genomic DNA PCR; format: cell-based; conditions: AZT 100 μM and ABC 10 μM given together, APP 751 transfection, hydrogen peroxide 0, 5 or 50 μM, FIG. 20B
Protocol: The method is graphically represented in FIG. 20A. CHO cells were serum-deprived for 2 days, followed by addition of reverse transcriptase (RT) inhibitors azidothymidine (AZT, 100 μM) and abacavir (ABC, 10 μM) (Tocris, Minneapolis, Minn.) until the end of the experiment. Medium was changed daily with fresh RT inhibitors. Cells were transfected with APP 751 by GenJet (SignaGen Laboratories, Gaithersburg, Md.) on day 3, then on day 4 cells were treated with 0 μM, 5 μM, or 50 μM of hydrogen peroxide (Fisher Scientific) for 2 hrs. After 1 day, cells were collected and genomic DNA was extracted for PCR analysis.

[2] = system: reverse transcriptase activity in CHO cell lysate; assay: In vitro reverse transcriptase activity assay in CHO cell lysate; format: biochemical; conditions: four independent experiments, FIG. 20E, read-out: IC50, decrease of reverse transcriptase activity
Protocol: In one example, lysates were prepared in reverse transcriptase disruption buffer and contained Complete™, EDTA-free Protease Inhibitor Cocktail (Sigma-Aldrich, St. Louis, Mo.) and PhosSTOP™ phosphatase inhibitors (Sigma-Aldrich, St. Louis, Mo.). One microgram of extract was used in the reverse transcription step of the assay. Reverse transcription was carried out at 37° C. for 45 min, followed by 15 min at 70° C. The RT product of this first step was assayed in triplicate by quantitative PCR. Levels of reverse transcription activity were determined by the Delta Cq method, compared to the activity in negative controls (water and no nucleotides) that were given Cq scores of 40. 1×10^5 picounits of SuperScript™ II Reverse Transcriptase (ThermoFisher Scientific) were used as a positive control for the assay. Lysates for heat inactivation experiments were incubated for 15 min at 70° C. prior to the reverse transcription step. For inhibitor experiments, lysates were incubated with inhibitor in the presence of all the components of the reaction except for dNTPs. After 10 min at room temperature, dNTPs were added and the reaction was incubated at 37° C. as above. AZT-TP was purchased from TriLink Biotechnologies (San Diego, Calif.).
In another example, the in vitro reverse transcriptase activity assay was conducted with reagents and protocol as shown in Tables 8-11.

| Molecule | production of APP gencDNAs under nucleoside reverse transcriptase inhibitors [1] | IC50 [2] [µM] |
| --- | --- | --- |
| Nc1nc(NC2CC2)c2ncn([C@H]3C=C[C@@H](CO)C3)c2n1 [abacavir] | also required to produce gencDNAs | – |
| azidothymidine triphosphate [AZT-TP] | – | 18.5 |
